Values quoted from earlier work in patent US7029703B2, “Composition for promoting healthy bone structure” (Metagenics, Inc., priority 1999, dated 2006).

Tests used:
[1] = postmenopausal osteoporosis
osteoblast-like cells = details: in vitro
[2] = 600 mg ipriflavone/day along with 1 gram calcium
[3] = in animals and in humans
[4] = clinical trials; consumption data of up to 2 years

SMILES | rate of bone loss [1] | alkaline phosphatase activity (osteoblast-like cells) | collagen synthesis (osteoblast-like cells) | Bone pain (during the 1200/600 mg sequence of ipriflavone) | Serum alkaline phosphatase (ALP) decrease (following the 1200/600 mg ipriflavone sequence, P<0.01) | hydroxy proline/creatinine (HOP/Cr) decrease (following the 1200/600 mg ipriflavone sequence, P<0.05) | Urinary hydroxyproline/creatinine (HOP/Cr) [2] | serum osteocalcin (BGP) [2] | increase in BMD at the distal radius (DPA) ([2]; 28 osteoporotic elderly women, P<0.05) | estrogenic activity [3] | frequency of adverse reactions [4]
O=C([O-])[O-].[Ca+2] [calcium carbonate] | reduced the rate of bone loss by about half |  |  |  |  |  |  |  |  |  | 
CC(C)Oc1ccc2c(=O)c(-c3ccccc3)coc2c1 [ipriflavone, 7-isopropoxyisoflavone] |  | increases | increases | significantly decreased | 33% | 24.1% | reduced | reduced | 6% | devoid of any estrogenic activity | equal to that observed during administration of a placebo
